Results as given in patent US20030166673A1, “Medicines for the prevention and treatment of neurodegenerative diseases” (priority 2001, published 2003).
Values joined by “and” are separate entries in the source; they are usually repeats but may differ in a detail not shown here. Equal values may be shown once.

System: vacuolized neurons in the PC/RS cortex (MK-801-induced neuronopathy)
Assay: Inhibitory effect on MK-801-induced neurodegeneration (number of vacuolized neurons)
Format: in vivo, mice (Std-ddY male)
Procedure: The pharmacological test was carried out according to the method of D. F. Wozniak, et al. [Brain Research, Vol. 707, pp 165-178 (1996)].
The cerebrum was cut transversely from the anterior termination at approximately 4 mm to the posterior termination, and then embedded in cold polymerized resin (Technovit7100, manufactured by Kulzer in Germany). The slices containing the PC/RS cortex were obtained at four Anterior-Posterior levels at intervals of 300 μm from the exposed section of the block, and at each level two slices (3 μm in thickness) were consecutively obtained. The histological change (on Hematoxylin and eosin stain specimen) and the number of vacuolized neurons (on Nissl stain specimen) were observed by a light microscope for each 4 slices, respectively.

[1] = individual mouse, Compound A 1 mg/kg p.o. 30 min before MK-801 1 mg/kg s.c., 5 h after MK-801, PC/RS cortex

Structure (SMILES): COc1cccc(-c2nccc3[nH]c(=O)c(-c4noc(C)n4)cc23)c1 [Compound A, 3-(5-Methyl-1,2,4-oxadiazol-3-yl)-5-(3-methoxyphenyl)-1,6-naphthyridin-2(1H)-one]
- Vacuolization, Mean(/slice) Group (group mean of three mice, Compound A 1 mg/kg p.o. + MK-801 1 mg/kg s.c., 5 h): 4.3 /slice
- Vacuolization, Slice No. 1 [1]: 0 (2×) and 20
- Vacuolization, Slice No. 2 [1]: 0 (2×) and 12
- Vacuolization, Slice No. 3 [1]: 0 and 10 and 2
- Vacuolization, Slice No. 4 [1]: 0 and 5 and 2
- Vacuolization, Mean(/slice) Individual (mean of 4 slices per mouse, Compound A 1 mg/kg p.o. + MK-801 1 mg/kg s.c., 5 h): 0.0 /slice and 11.8 /slice and 1.0 /slice
- retardation or inhibition of neurodegeneration in the PC/RS cortex induced by MK-801 (in words) (mice, Compound A 1 mg/kg p.o. before MK-801 1 mg/kg s.c.): potent retardation or inhibition of neurodegeneration
